Test: xn = mol fraction of the nth substance listed
Details: 101.3 kPa, Liquid; for viscosity: Capillary tube (Ostwald / Ubbelohde) method

CCCCN [1-butanamine] + COCCO
Details | speed of sound, 298.15 K [m/s] | viscosity, 293.15 K [mPa·s] | viscosity, 298.15 K [mPa·s] | viscosity, 303.15 K [mPa·s]
x2 = 0 | 1251.6 | 0.525 | 0.496 | 0.467
x2 = 0.0501 | 1257 | 0.566 | 0.536 | 0.504
x2 = 0.0999 | 1262.3 | 0.613 | 0.578 | 0.544
x2 = 0.1508 | 1267.7 | 0.669 | 0.625 | 0.588
x2 = 0.2001 | 1273.1 | 0.731 | 0.68 | 0.636
x2 = 0.2509 | 1278.4 | 0.801 | 0.743 | 0.691
x2 = 0.3 | 1283.6 | 0.879 | 0.81 | 0.75
x2 = 0.3498 | 1288.8 | 0.964 | 0.886 | 0.815
x2 = 0.4001 | 1294 | 1.053 | 0.966 | 0.885
x2 = 0.4511 | 1299.1 | 1.146 | 1.049 | 0.957
x2 = 0.5001 | 1304 | 1.238 | 1.133 | 1.031
x2 = 0.5496 | 1308.8 | 1.327 | 1.214 | 1.103
x2 = 0.5997 | 1313.5 | 1.412 | 1.29 | 1.17
x2 = 0.6503 | 1318.1 | 1.488 | 1.358 | 1.232
x2 = 0.7 | 1322.4 | 1.552 | 1.415 | 1.286
x2 = 0.7492 | 1326.6 | 1.604 | 1.461 | 1.327
x2 = 0.7999 | 1330.7 | 1.643 | 1.493 | 1.359
x2 = 0.8491 | 1334.5 | 1.671 | 1.516 | 1.379
x2 = 0.8993 | 1338 | 1.686 | 1.525 | 1.389
x2 = 0.95 | 1341.4 | 1.696 | 1.533 | 1.395
